How the values were obtained:
singlet oxygen = experiment: ROS generation: singlet oxygen measured by decrease of ADPA fluorescence; assay type: biochemical
Experimental: A ROS-generating effect of the RLuc8-MS protein was confirmed using 100 μL of buffer (50 mM HEPES-KOH, 24° C., pH 7.4) containing RLuc8-MS protein (final concentration: 10 μM), anthracene-9,10-dipropionic acid (ADPA, Abcam., UK; final concentration: 50 μM) whose fluorescence intensity decreases in the presence of singlet oxygen, flavin mononucleotide (FMN) (final concentration: 150 μM) and a Co-h substrate solution. The rate of decrease in fluorescence intensity was measured at the excitation wavelength of 380 nm and the emission wavelength of 430 nm of ADPA using a plate reader.
a ROS-generating effect of the RLuc8-MS protein was measured using RLuc8-MS (final concentration: 10 μM) and ADPA (final concentration: 50 μM) whose fluorescence intensity decreases in the presence of singlet oxygen.
Here, the active oxygen generation rate of each protein was measured using 100 μL of buffer (50 mM HEPES-KOH, 24° C., pH 7.4) containing FMN (final concentration: 150 μM) and a Co-h substrate solution (final concentration: 150 μM).
The rate of decrease in fluorescence intensity was measured at the excitation wavelength of 370 nm and the emission wavelength of 420 nm of DHE using a plate reader. In addition, the rate of decrease in fluorescence intensity was measured at the excitation wavelength of 380 nm and the emission wavelength of 430 nm of ADPA using a plate reader.
(§1) A ROS generation rate was measured using 100 μL of buffer (50 mM HEPES-KOH, 24° C., pH 7.4) containing the KR protein, RLuc8.6-KR protein (final concentration: 10 μM) and ADPA (final concentration: 50 μM) whose fluorescence intensity decreases in the presence of singlet oxygen.
(§2) A ROS generation rate was measured using 100 μL of buffer (50 mM HEPES-KOH, 24° C., pH 7.4) containing MS, RLuc8-MS (final concentration: 10 μM), ADPA (final concentration: 50 μM) whose fluorescence intensity decreases in the presence of singlet oxygen and FMN (final concentration: 150 μM).
After irradiation with light at 10 mW/cm^2 for 30 minutes, the rate of decrease in fluorescence intensity was measured at the excitation wavelength of 380 nm and the emission wavelength of 430 nm of ADPA using a plate reader.
as §1, with “oxygen and a Co-h substrate solution (final concentration: 150 μM).” for “oxygen.”
as §2, with “oxygen,” for “oxygen and”, “150 μM) and a Co-h substrate solution (final concentration: 150” for “150”
The rate of decreasing fluorescence intensity was measured at the excitation wavelength of 380 nm and the emission wavelength of 430 nm of ADPA using a plate reader. […]

MCF-7 cells = experiment: MTT colorimetric change and cell viability after reaction with Co-h substrate; assay type: cell-based, human; conditions: MCF-7, protein 10 μM 24 hours, Co-h 150 μM, without light irradiation
Experimental: MCF-7 cells were seeded at 5×10^5 cells/mL in a 96-well plate (SPL Cell Culture Plate, 96 well (SPL, Cat #30096)), and cultured at 37° C. for 24 hours (overnight).
After the culture for 24 hours, the cells were washed with FBS & Phenol red-free media (RPMI), and 100 μL of an FBS-free medium containing the purified protein (final concentration: 10 μM) was added, followed by reaction at 37° C. for 24 hours.
After the reaction for 24 hours, the cells were washed with FBS & Phenol red-free media (RPMI), and then 100 μL of FBS & Phenol red-free media (RPMI) containing a Co-h substrate solution (final concentration: 150 μM) was added. The cells were washed with FBS & Phenol red-free media (RPMI), and 100 μL of fresh FBS & Phenol red-free media (RPMI) were then added.
10 μL of 3-(4,5-dimethylthiazol-2-yl)-2,5-diphenyltetrazolium bromide (MTT) (final concentration: 1×) was added, followed by reaction at 37° C. for 4 hours. After 100 μL of a supernatant was removed, 100 μL of DMSO was added, followed by reaction for 10 minutes. The colorimetric change of MTT according to a protein type treated to the cells and the light irradiation time was checked, and then cell viability was confirmed by measuring the absorbance intensity at 570 nm using a plate reader. […]

Row | Substance | singlet oxygen generation rate after light irradiation (singlet oxygen; 10 mW/cm^2, 30 minutes, no substrate, protein 10 μM, ADPA) | singlet oxygen generation rate by Co-h reaction after ROS scavenger treatment (singlet oxygen; RLuc8-MS 10 μM, Co-h 150 μM 30 minutes, SOD 800 U/ml, sodium azide 100 mM or D-mannitol 100 mM) | cell viability / colorimetric change of MTT with reaction time with Co-h (MCF-7 cells) | singlet oxygen generation rate after Co-h substrate reaction (singlet oxygen; Co-h 150 μM, 30-min reaction, without light irradiation, protein 10 μM, ADPA) | Co-h concentration until which the singlet oxygen generation rate increased, then constantly maintained (singlet oxygen; protein 10 μM, ADPA 50 μM, FMN 150 μM, substrate reaction time 5 minutes) [µM] | reaction time with Co-h until which the singlet oxygen generation rate increased, then constantly maintained (singlet oxygen; protein 10 μM, Co-h 150 μM, ADPA) [min]
1 | MS: first protein MiniSOG, ROS-generating protein (singlet oxygen), expressed from pRSET-MiniSOG, 13 kDa [reference compound] | higher singlet oxygen generation rate | lowest when sodium azide was treated | the staining becomes pink |  |  | 
2 | RLuc8-MS: fusion protein of RLuc8 and MiniSOG without lead peptide, 53 kDa |  |  | the staining becomes pink | highest singlet oxygen generation rate | 150 | 20

— patent US20220040304A1, “A COMPOSITION FOR CANCER CELL DEATH AND ITS USE” (Industry-University Cooperation Foundation Hanyang …, priority 2018, published 2022)
